Literature values, collected in patent US10195257B2 (Qantu Therapeutics, Inc., priority 2013, dated 2019).

Experiments:
T cells = conditions: in vivo
Aβ = conditions: without any adjuvant, administered intra-nasally
OVA-specific CTLs = conditions: mice immunized with OVA plus adjuvant

Question: With `O=Cc1c(O)cccc1OCc1ccc(C(=O)O)cc1` [tucaresol, 4-(2-formyl-3-hydroxyphenoxymethylbenzoic acid)] as the compound, how does the “type of immunity favored” value (T cells) read?
Answer: Its value is “favors a Th1-biased immunity with a Th1-type cytokine profile and concomitant CTL production”.

Question: With “Aβ40: main Aβ peptide that contains amino acid residues from 1 to 40” as the compound, how does the “immune response and Aβ plaques” value (Aβ) read?
Answer: Its value is “Th2 immune response and reduced levels of Aβ plaques”.

Question: For QS-21, which “immune response type and CTL production” value (OVA-specific CTLs) is on record?
Answer: Its value is “Th1 immune response with the concomitant production of OVA-specific CTLs”.
